Reference: the CheMixHub ionic liquid set

Test: xn = mol fraction of the nth substance listed

C=C[n+]1ccn(CC(N)=O)c1.O=S(=O)([N-]S(=O)(=O)C(F)(F)F)C(F)(F)F + CC#N
100 kPa
Details	electrical conductivity [S/m]	viscosity [mPa·s]
298.15 K, x1 = 0.01	1.29	0.67
303.15 K, x1 = 0.07	3.51	–
303.15 K, x1 = 0.1	3.28	10
303.15 K, x1 = 0.2	1.77	–
303.15 K, x1 = 0.201	–	69
303.15 K, x1 = 0.393	0.48	–
303.15 K, x1 = 0.4011	–	680
308.15 K, x1 = 0.01	1.4	0.61
308.15 K, x1 = 0.02	2.78	–
308.15 K, x1 = 0.201	–	60
308.15 K, x1 = 1	0.03	–
313.15 K, x1 = 0.1	3.8	8.2
313.15 K, x1 = 0.4011	–	424
318.15 K, x1 = 0.01	1.53	0.55
318.15 K, x1 = 0.047	3.87	–
318.15 K, x1 = 0.2	2.38	–
323.15 K, x1 = 0.08	4.39	–
323.15 K, x1 = 0.2	2.58	–
323.15 K, x1 = 0.3026	–	119
323.15 K, x1 = 1	0.1	–
328.15 K, x1 = 0.07	4.58	–
328.15 K, x1 = 0.1	4.49	6.6
328.15 K, x1 = 0.4011	–	233
328.15 K, x1 = 1	0.14	–
333.15 K, x1 = 0.047	4.34	–
333.15 K, x1 = 0.201	–	32.7

CCCCCC[n+]1ccccc1.O=[N+]([O-])[O-] + CC#N
298.15 K, 101 kPa
Details	viscosity [mPa·s]
x1 = 0.004149	0.5468
x1 = 0.008252	0.6095
x1 = 0.0124	0.6478
x1 = 0.01616	0.6731
x1 = 0.02021	0.6913
x1 = 0.02422	0.7042
x1 = 0.02814	0.7132
x1 = 0.032	0.7169
x1 = 0.03564	0.7185
x1 = 0.03937	0.7176

CCCC[P+](CCCC)(CCCC)CCCC.F[B-](F)(F)F + CC#N
viscosity [mPa·s], 100 kPa
Details	293.15 K	298.15 K	303.15 K	308.15 K	313.15 K	318.15 K
x1 = 0.0005293	–	0.347	–	–	–	–
x1 = 0.0007957	–	0.35	–	–	–	–
x1 = 0.001066	–	0.353	–	–	–	–
x1 = 0.001332	–	0.356	–	–	–	–
x1 = 0.001602	–	0.36	–	–	–	–
x1 = 0.001872	–	0.363	–	–	–	–
x1 = 0.004186	0.373	0.356	0.341	0.326	0.313	0.3
x1 = 0.0082	0.395	0.376	0.359	0.343	0.329	0.315
x1 = 0.01203	0.415	0.395	0.376	0.359	0.344	0.329
x1 = 0.01623	0.439	0.417	0.398	0.378	0.362	0.346
x1 = 0.01997	0.462	0.439	0.417	0.397	0.379	0.362
x1 = 0.02402	0.489	0.463	0.441	0.417	0.399	0.38
x1 = 0.02784	0.514	0.485	0.459	0.438	0.417	0.398
x1 = 0.03177	0.539	0.512	0.484	0.459	0.437	0.416
x1 = 0.03555	0.565	0.533	0.505	0.479	0.456	0.434
x1 = 0.03928	0.597	0.565	0.533	0.505	0.48	0.456
